Results from PMC4513130, “Neuronal Calcium Sensor-1 Binds the D2 Dopamine Receptor and G-protein-coupled Receptor Kinase 1 (GRK1) Peptides Using Different Modes of Interactions” (The Journal of Biological Chemistry, 2015).

Legend:
[1] = Solubility and aggregation
[2] = Size exclusion chromatography-multiangle laser light scattering (MALLS); format: physicochemical; conditions: SEC-MALLS, Superdex 75; 20 mM Tris-HCl, 150 mM NaCl, 1 mM CaCl2, pH 7.5; 1.5 mg/ml injected
Method: Measurements were performed on a Dionex BioLC HPLC connected to an 18-angle light scattering detector and a differential refractometer (DAWN HELEOS-II and OPTILab rEX, Wyatt). A Superdex 75 10/300 GL column (GE Healthcare) was used in 20 mM Tris-HCl, 150 mM NaCl, 1 mM CaCl2, pH 7.5, at a flow rate of 0.75 ml/min. Sample volumes of 1 ml were injected at a concentration of 1.5 mg/ml. Samples eluting from the column passed through an in-line DAWN HELEOS-II laser photometer (λ = 658 nm) and an OPTILab rEX refractometer with a QELS dynamic light scattering attachment. Light scattering intensity and eluant refractive index (concentration) were analyzed using ASTRA version 5.3.4.13 software to give a weight-averaged molecular mass. To determine the detector delay volumes and normalization coefficients for the MALLS detector, a BSA sample (Sigma A-8531) was used as reference.

NCS-1ΔCT = assay: NMR (1H-15N HSQC) of Ca2+/NCS-1ΔCT, titration with D2R peptide; format: binding, rat; conditions: 15N Ca2+/NCS-1ΔCT alone
Method: NCS-1 was prepared in 50 mM Tris-HCl buffer, pH 6.8, in the presence of 5 mM MgCl2 and 5 mM CaCl2. NMR spectra were recorded at 27 °C on Bruker DRX 800 and 600 MHz Avance II spectrometers equipped with CryoProbes. Data were processed using the Bruker software TopSpin and analyzed using CCPN software ([26]). Sequence-specific backbones were obtained using the HNCA, HN(CO)CA, HNCO, HN(CA)CO, CBCA(CO)NH, CBCANH, HBHA(CO)NH, and HCCH-TOCSY experiments.
FIGURE 9. NMR spectra and structure of rat Ca^2+/NCS-1ΔCT (PDB code 4YRU). A,^1H-^15N heteronuclear single quantum coherence spectra of ^15N Ca^2+/NCS-1ΔCT; B, in the presence of 5-fold excess of D2R peptide in 50 mM Tris-HCl buffer, 50 mM NaCl, 5 mM CaCl2, pH 6.5, 298 K. C, structure of the dimer of NCS-1ΔCT. Left, one monomer is shown as a backbone schematic and the other as a surface representation. Right, view of the hydrophobic binding site. Residues from helix 3 and the EF1/EF2 loop (Phe-48–Phe-58) are colored red, and residues in the EF3/EF4 loop region (Val-136–Pro-139) are colored brown. Conserved hydrophobic surface-exposed residues in the N-lobe site, which are involved with binding the D2R peptide, are highlighted in yellow (similar to those highlighted in Fig. 4B). D2R peptide in the N-site is shown with magenta ribbon for comparison. Ca^2+ ions are shown as brown spheres.

recoverin = conditions: NMR structure, PDB 2I94; orientation opposite to that in NCS-1·GRK1 complex; cited from earlier work
Text: The C-terminal α-helix in both complexes form one edge of the hydrophobic groove. […] Somewhat surprising are the differences observed between the NCS-1 ...

NCS-1 = assay: Crystal structure of peptide complex with Ca2+/NCS-1 (copies bound, buried surface area); format: binding, Rattus norvegicus
Method: Purified proteins were equilibrated against 20 mM Tris-HCl, pH 7.5, and concentrated to 1 mM final protein concentration before initiating crystallization trials. For crystallization of the peptide complexes, a 2-fold excess of peptide was added to the protein solution. Crystals were grown at 20 °C using the sitting drop vapor diffusion method. NCS-1 was crystallized in 0.1 M sodium cacodylate, pH 6.5, 0.2 M sodium acetate, and 30% (w/v) PEG 8000, similar to the conditions previously reported ([27]). […]
For the NCS-1·D2R complex, molecular replacement used the structure of human NCS-1 (human and rat NCS-1 have 99% sequence identity; PDB accession 1G8I) and PHASER ([31]), as implemented from within PHENIX ([32]). […] At this stage, electron density for the helix for chain B was readily apparent, and a model for the helix was built in manually using COOT ([33]). […]
The structure of the NCS-1·GRK1 complex was determined using the coordinates from the A chain of the NCS-1 apoprotein and the program MOLREP ([38]), as implemented from within the CCP4 program suite ([39]). […] Electron density for a single GRK1 peptide per NCS-1 monomer, in a helical conformation, was readily detectable. […]
Data for NCS-1ΔCT were processed using MOSFLM ([37]) and SCALA ([30]). […] The four molecular copies of NCS-1ΔCT in this crystal form were readily identified in this way. […]

TFNIEFRKAFLKILHC [reference compound]
solubility ([1]; in water): insoluble in water

NCS-1ΔCT: C-terminal truncated mutant of NCS-1, residues Ser-178–Val-190 deleted
solution state [2]: polydisperse
NMR spectra of NCS-1ΔCT (NCS-1ΔCT): significant concentration-dependent line broadening

MDFGSLETVVANSAFIAARGSFDGS [GRK1 peptide]
binding site on recoverin (recoverin): binding only in the N-lobe site
buried surface area of peptide (NCS-1; GRK1 peptide in hydrophobic groove, PDB 5AFP): 921 Å^2
copies of peptide bound per NCS-1 molecule (NCS-1; crystal structure, Ca2+/NCS-1, 2-fold excess of peptide): one
aggregation [1]: propensity to aggregate
